US5460801A, “Inhibition of small cell lung cancer cell growth in vivo using monoclonal antibody” (The United States of America as represented by the …, priority 1993, dated 1995)
Values joined by “and” are separate entries in the source; they are usually repeats but may differ in a detail not shown here. Equal entries are not always repeated. Square brackets hold non-standard residues; d marks the D form. Ends that are not written are not given here. Peptide text beside a SMILES is read from it. pGlu = O=C1CC[C@@H](C(=O)O)N1

Key:
monoclonal antibody 2A11 = test: Indirect radioimmunoassay: 2A11 cross reactivity with solid phase synthetic peptides; type: binding, mouse; conditions: for % 125I-PROTEIN A BOUND (% cross reactivity with 2A11): cpm minus BSA background relative to bombesin; for % 125I-PROTEIN A BOUND (% cross reactivity with 2A11) / CPM 125I-PROTEIN A BOUND: peptides solid phased at 500 ng/well; for CPM 125I-PROTEIN A BOUND: 2A11 10 μg/ml, detection with rabbit anti mouse IgG and 125I-protein A; for 2A11 binding to the solid phase peptide (in words): indirect RIA / titration of 2A11
Experimental: Peptides (all purchased from Peninsula Laboratories) were adsorbed to 96 well polyvinyl chloride microtiter plates (Dynatech) by adding 0.05 ml of a 10 μg/ml peptide in phosphate buffered saline (PBS) for 1 hr., washing in PBS, then blocking with a 1% bovine serum albumin (BSA) PBS solution. Purified 2A11 from ascites fluid (10 μg/ml) was added, incubated, washed three times, then protein A affinity purified rabbit anti-mouse IgG (Cappel Laboratories) 1.6 μg/ml) was added, incubated, washed three times, then ^125 I-protein A (Pharmacia, labeled by chloramine T method to 40-50 μCi/μg) 40,000 cpm/well was added, incubated, washed 8× and then the wells cut out and counted in a Beckman gamma counter. All incubations were for 1 hr. at room temperature in PBS with 1% BSA in 0.025 ml volumes.
Percent cross reactivity was determined as follows:
% cross reactivity--cpm^125 I-protein A bound on peptide target minus cpm bound on BSA target divided by crop bound by bombesin minus BSA background times 100. Typically, the bombesin target caused 2A11 binding sufficient to bind about 32,776 cpm of ^125 I-protein A while the BSA background bound about 30 cpm.

solid phase 2A11 = test: Quantitative inhibition assay: peptide inhibition of 125I-Tyr4-BN binding to solid phase 2A11; set-up: species or system mouse; conditions: for PERCENT INHIBITION of 125I-Tyr4-BN binding to solid phase 2A11: peptides at 1 nM, mean ± SD of 3 determinations
Experimental: Antibodies 2A11 or MOPC 21 were adsorbed to 96 well polyvinylchloride plates at 500 ng/well followed by saturation with 1% BSA-PBS. Unlabeled bombesin was added to triplicate wells covering a range from 1-1,000 pg and incubated for 1 hr. at room temperature. Without removing the unlabeled bombesin samples, about 12,000 cpm of ^125 I-Tyr^4 -bombesin was added to each well and incubated overnight at 4° C., washed 8× and counted. All additions were in 1% BSA-PBS in a 25 μl volume, and the washes were with 1% BSA-PBS 0.2 ml/well.

NCI-N592 = test: Agarose clonogenic assay in serum-free HITES medium, NCI-N592; type: cell-based, human; conditions: 50 nM exogenous BN; SCLC lines NCI-N417D and NCI-N592
Experimental: Because of its poor colony forming efficiency in serum-free medium, NCI-N417 culture plates were supplemented with 0.1% BSA to enhance cell growth, NCI-N592 cells were seeded at 5×10^4 per plate while NCI-N417 cells were plated at 1×10^4. Plates were pre-screened to verify single cell distribution of test cells and assessed 21 days later for colony formation. Cell aggregates of greater than 50 cells were scored positive as definitive colony growth.

[1] = tested on: 2A11 staining of BLP in paraffin embedded tissue; test: Immunohistochemical staining with 2A11: pre-absorption specificity test; conditions: peptide 100 μg/ml; 2A11 at 10 μg/ml
Source text: Antibody 2A11 was also used for immunohistochemical localization of BLP in paraffin embedded tissue. Using rabbit antisera it has been reported that chick proventriculus and human fetal bronchioles are rich in BN-like immunoreactivity. Use was, therefore, made of immunohistochemical staining technique of Hsu, et al. J. Histochem. Cytochem. 29, 557-5--1981, in combination with 2A11 for the light microscopic detection of BLP. Bombesinergic cells were found in chick proventriculus, human fetal bronchioles and a human SCLC. Immune staining was performed using 2A11 at 10 μg/ml.

| Molecule | % 125I-PROTEIN A BOUND (% cross reactivity with 2A11) (monoclonal antibody 2A11) [%] | CPM 125I-PROTEIN A BOUND (monoclonal antibody 2A11) | PERCENT INHIBITION of 125I-Tyr4-BN binding to solid phase 2A11 (solid phase 2A11) [%] | other results |
| --- | --- | --- | --- | --- |
| CC[C@H](C)[C@H](NC(=O)[C@H](Cc1ccccc1)NC(=O)[C@H](C)NC(=O)[C@H](CC(=O)O)NC(=O)[C@H](CCCCN)NC(=O)[C@H](CO)NC(=O)[C@@H]1CCCN1C(=O)[C@@H]1CCC(=O)N1)C(=O)NCC(=O)N[C@@H](CC(C)C)C(=O)N[C@@H](CCSC)C(N)=O [ELEDOISIN, eledoisin] ([pGlu]PSKDAFIGLM-NH2) | < 0.02 | 24 CPM |  | % 125I-PROTEIN A BOUND (% cross reactivity with 2A11) (monoclonal antibody 2A11; listed as eledoisin): less than 0.3% |
| CSCC[C@H](NC(=O)[C@H](Cc1ccccc1)NC(=O)[C@H](Cc1c[nH]cn1)NC(=O)CNC(=O)[C@@H](NC(=O)[C@H](C)NC(=O)[C@H](Cc1c[nH]c2ccccc12)NC(=O)[C@H](CCC(N)=O)NC(=O)[C@@H]1CCC(=O)N1)C(C)C)C(N)=O [Litorin] |  |  | 56.5 ± 6.2 |  |
| CSCC[C@H](NC(=O)[C@H](Cc1ccccc1)NC(=O)[C@H](Cc1c[nH]cn1)NC(=O)CNC(=O)[C@@H](NC(=O)[C@H](C)NC(=O)[C@H](Cc1c[nH]c2ccccc12)NC(=O)[C@H](CCC(N)=O)NC(=O)[C@@H]1CCCN1C(=O)[C@@H](NC(=O)[C@@H]1CCC(=O)N1)C(C)C)C(C)C)C(N)=O [Ranatensin] ([pGlu]VPQWAVGHFM-NH2) |  |  | 54.0 ± 8.4 |  |
| CSCC[C@H](NC(=O)[C@H](CC(C)C)NC(=O)CNC(=O)[C@H](Cc1ccccc1)NC(=O)[C@H](Cc1ccccc1)NC(=O)[C@H](CCC(N)=O)NC(=O)[C@H](CCC(N)=O)NC(=O)[C@@H]1CCCN1C(=O)[C@H](CCCCN)NC(=O)[C@@H]1CCCN1C(=O)[C@@H](N)CCCNC(=N)N)C(N)=O [SUBSTANCE P, substance P] | < 0.02 | 31 CPM |  | % 125I-PROTEIN A BOUND (% cross reactivity with 2A11) (monoclonal antibody 2A11; listed as substance P): less than 0.3%; 2A11 binding to the solid phase peptide (in words) (monoclonal antibody 2A11): insignificant 2A11 binding; inhibition of 125I-Tyr4-BN/2A11 binding (in words) (solid phase 2A11; same concentration range as BN standard curve): incapable of inhibiting |
| Alytesin |  |  | 99.0 ± 5.1 |  |
| GRP^14-27: fragment 14-27 of gastrin releasing peptide (MYPRGNHWAVGHLM; ends and bridges not checked; UniProt P07492 37-50, looked up, fragment) | 102 | 33,379 CPM | 104.3 ± 7.7 |  |
| GRP^20-27: C-terminal octapeptide fragment 20-27 of gastrin releasing peptide |  |  |  | PERCENT INHIBITION of 125I-Tyr4-BN binding to solid phase 2A11 (solid phase 2A11; 0.001 µM): 98.5 ± 2.4% and 98.5% |
| KASSININ | < 0.02 | 37 CPM |  | % 125I-PROTEIN A BOUND (% cross reactivity with 2A11) (monoclonal antibody 2A11; listed as kassinin): less than 0.3% |
| PHYSALAEMIN | < 0.02 | 28 CPM |  | % 125I-PROTEIN A BOUND (% cross reactivity with 2A11) (monoclonal antibody 2A11; listed as physalaemin): less than 0.3% |
| bombesin | 100 |  | 100.0 ± 4.7 | 2A11 binding to the solid phase peptide (in words) (monoclonal antibody 2A11): maximal binding; CPM 125I-PROTEIN A BOUND (monoclonal antibody 2A11; listed as BOMBESIN): 32,776 CPM; CPM 125I-PROTEIN A BOUND (monoclonal antibody 2A11; listed as bombesin): about 32,776 CPM; effect of exogenous BN on 2A11 growth inhibition (in words) (NCI-N592): nullification of the 2A11 effect; effect of pre-absorption of the antibody solution on 2A11 staining (in words) [1]: staining inhibited |
| gastrin-releasing peptide [GASTRIN RELEASING PEPTIDE (GRP)] | 102 | 33,405 CPM | 101.0 ± 3.4 | 2A11 binding to the solid phase peptide (in words) (monoclonal antibody 2A11): maximal binding |
| neurotensin |  |  |  | effect of pre-absorption of the antibody solution on 2A11 staining (in words) [1]: no inhibition of staining |
